Where two headings read alike, the source gives them in different places. Starred links: 1 amine or outer side, 2 acyl side, 3 side chain; linkers in the order of their positions; H or OH if unused. Positions of bridges follow the written chain, without caps; N, C: chain ends. Non-standard residues stand in square brackets, D forms with d. Residues, ends and D or L forms follow the SMILES beside them. *: point of attachment. AMPB(E) = O=C(c1ccc(/N=N/c2ccc(CN[*:1])cc2)cc1)[*:2]; AMPB = O=C(c1ccc(N=Nc2ccc(CN[*:1])cc2)cc1)[*:2]; X1 = O=C(c1ccc(/N=N\c2ccc(CN[*:1])cc2)cc1)[*:2]; d(αMeK) = C[C@@](N)(CCCCN)C(=O)O; dPhg = N[C@@H](C(=O)O)c1ccccc1; Isobutyryl = CC(C)C(=O)*; Abu = CC[C@H](N)C(=O)O; Ahx = NCCCCCC(=O)O; βAla = NCCC(=O)O
Columns and labels:
[1] = target: MLL1 core complex (MLL1, WDR5, RbBP5, and ASH2L) (Homo sapiens, UniProt P61964); experiment: biochemical
Experimental: To test this, we studied the inhibition of MLL1 H3K4 methyltransferase activity through the previously reported in vitro HMT assay using the MLL1 core complex (i.e. MLL1, WDR5, RbBP5, and ASH2L) and the H3 20mer peptide as substrate.[17]
In Vitro Methyl Transferase Assay with MLL1 Core Complex
In Vitro Histone Methyltransferase (HMT) Assay
The HMT assay was performed, as previously described[25] with slight modifications, in 50 mM Tris pH 8.0, 50 mM NaCl, 1.0 mM DTT, 5 mM MgCl2 at room temperature. Each reaction contained 1.5 μM of the cofactor 3H-S-adenosylmethionine (Perkin-Elmer). H31-21 peptide was used as the substrate at 250 μM. […] Reactions were initiated by addition of the H3/SAM and allowed to proceed for 60 min before preparing scintillation counting. To count samples, reactions were spotted on separate squares of P81 filter paper (Millipore) and precipitated by submerging in freshly prepared 50 mM sodium bicarbonate buffer pH = 9.0. After washing and drying, the samples were vortexed in Ultima Gold scintillation fluid and counted.

[2] = tested on: MLL-AF9-transduced mouse bone marrow cells; experiment: Proliferation / cell viability assay (CellTiter-Glo); format: cell-based; settings: for Inhibition (%) of growth: 5 μM
Experimental: (§1) We initially studied the cellular uptake and cell viability of our compounds in murine MLL-AF9-transduced mouse bone marrow cells (Fig. 5). In line with our expectations, peptidomimetics 16 and 17 that contained peptide 7 within their sequence are the ones that inhibited the cell proliferation of leukemia. […] Thus, while in the case of the trans isomer of peptidomimetic 16 we already determined less than 50% of viable cells at 2.5 μM concentration, with the WIN-containing conjugates 20 and 21 we measured 87% and 96% of viable cells at 50 μM concentration, respectively.
(§2) We then examined the potential of 16 and 17 to control externally the cellular response in proliferation assays. Thus, both isomers of both peptidomimetics were incubated at different concentrations for four days. After two days of incubation, the cells containing the cis isomers were irradiated at 430 nm for 90 seconds in a single isomerization cycle with a custom-made 6-well plate LED array.
(§3) MLL-AF9-transduced mouse bone marrow was cultured in IMDM medium + 15% FBS and supplemented with 10 ng/mL interleukin-3 (IL-3) at each passage, every other day.
(§4) DMSO) isomers, of peptides 7, 16, 17, as well as the peptides 18 and 19 were diluted from stock to culture media containing a 0.1% DMSO final concentration. For viability assays, […]
(§5) 72 h and DMSO as control . For the cis-trans group, after 48 h treatment with cis peptides, the plate was irradiated at […] for 90 sec and continued to culture for 2 days in the dark.
(§6) Viability was determined using the CellTiter-Glo Kit (Promega) according to the a a ’ d . was monitored on a Molecular Devices plate reader.

WDR5Δ23 = target: T1, WDR5Δ23 (Homo sapiens, UniProt P61964); experiment: Fluorescence polarization (FP)-based competitive binding assay
T1 construct: His6-SUMO (N, cleaved yes); made in house; host or cells: E. coli DH5α (so in the source)

[3] = Proliferation / cell viability assay (CellTiter-Glo); format: cell-based, mouse
Experimental: as §1, §2, §3, §4, §5, §6

[4] = IC50 cis (with 5 nM tracer), cis isomer (366 nm), 20 nM WDR5Δ23, 5 nM tracer 22
[5] = IC50 trans (with 5 nM tracer), trans isomer, 20 nM WDR5Δ23, 5 nM tracer 22
[6] = non-irradiated peptide (trans isomer), 72 nM WDR5Δ23, 20 nM tracer 22, read-out: IC50, non-irradiated (trans)
[7] = non-irradiated peptide (trans isomer), 72 nM WDR5Δ23, 20 nM tracer 22, read-out: Ki, non-irradiation (trans)

Compound	IC50 (WDR5Δ23; [6])	Ki (WDR5Δ23; [7])	also measured
CC(C)C[C@H](NC(=O)[C@H](Cc1c[nH]cn1)NC(=O)[C@@H](NC(=O)c1ccc(/N=N\c2ccc(CNC(=O)[C@H](C)NC(=O)[C@H](CCCNC(=N)N)NC(=O)[C@H](C)NC(=O)[C@@H](N)CO)cc2)cc1)C(C)C)C(=O)N[C@@H](CCCNC(=N)N)C(=O)N[C@@H](CCCCN)C(=O)N[C@@H](CO)C(N)=O [7cis, H2N-SARAXVHLRKS-CONH2] (H-SARA[X1]VHLRKS-NH2)			IC50 [1]: 8230 ± 380 nM; Inhibition (%) of growth ([2]; 96 h incubation): ≈ 0%; IC50 (WDR5Δ23; [4]): 147 ± 14 nM
CC(C)C[C@H](NC(=O)[C@H](Cc1c[nH]cn1)NC(=O)[C@@H](NC(=O)c1ccc(/N=N/c2ccc(CNC(=O)[C@H](C)NC(=O)[C@H](CCCNC(=N)N)NC(=O)[C@H](C)NC(=O)[C@@H](N)CO)cc2)cc1)C(C)C)C(=O)N[C@@H](CCCNC(=N)N)C(=O)N[C@@H](CCCCN)C(=O)N[C@@H](CO)C(N)=O [7trans, H2N-SARAXVHLRKS-CONH2] (H-SARA[AMPB(E)]VHLRKS-NH2)			IC50 [1]: 531 ± 23 nM; Inhibition (%) of growth ([2]; 96 h incubation): 0%; IC50 (WDR5Δ23; [5]): 57 ± 11 nM
CC(C)C[C@H](NC(=O)[C@H](Cc1c[nH]cn1)NC(=O)[C@@H](NC(=O)c1ccc(/N=N\c2ccc(CNC(=O)[C@H](C)NC(=O)[C@H](CCCNC(=N)N)NC(=O)[C@H](C)NC(=O)[C@@H](N)CO)cc2)cc1)C(C)C)C(=O)N[C@@H](CCCNC(=N)N)C(=O)N[C@@H](CCCCN)C(=O)N[C@@H](CO)C(=O)N[C@@H](CCCNC(=N)N)C(=O)N[C@@H](CCCNC(=N)N)C(=O)N[C@@H](CCCNC(=N)N)C(=O)N[C@@H](CCCNC(=N)N)C(=O)N[C@@H](CCCNC(=N)N)C(=O)N[C@@H](CCCNC(=N)N)C(=O)N[C@@H](CCCNC(=N)N)C(=O)N[C@@H](CCCNC(=N)N)C(N)=O [16cis, H2N-SARA-AMPB-VHLRKS-R8-NH2] (H-SARA[X1]VHLRKSRRRRRRRR-NH2)			GI50 ([2]; 96 h): 2880 ± 240 nM
CC[C@@H]1NC(=O)[C@H](CCCN=C(N)N)NC(=O)[C@](C)(NC(=O)C(C)C)CCCCNC(=O)[C@@H](c2ccccc2)NC1=O [MM401, reference compound] (Isobutyryl-[d(αMeK)]R[Abu][dPhg]; lactam 1-C)			GI50 ([2]; 96 h incubation, cis isomers kept in the dark, read-out: GI50): 9760 nM
CC(C)C[C@H](NC(=O)[C@H](Cc1c[nH]cn1)NC(=O)[C@@H](NC(=O)[C@H](CCC(=O)O)NC(=O)[C@H](C)NC(=O)[C@H](CCCNC(=N)N)NC(=O)c1ccc(N=Nc2ccc(CNC(=O)[C@@H](N)CO)cc2)cc1)C(C)C)C(=O)N[C@@H](CCCNC(=N)N)C(=O)N[C@@H](CCCCN)C(=O)N[C@@H](CO)C(N)=O [peptide 5, H2N-SXRAEVHLRKS-CONH2] (H-S[AMPB]RAEVHLRKS-NH2)	3910 ± 830 nM	66.8 ± 10 nM	
CC(C)C[C@H](NC(=O)[C@H](Cc1c[nH]cn1)NC(=O)c1ccc(N=Nc2ccc(CNC(=O)[C@H](CCC(=O)O)NC(=O)[C@H](C)NC(=O)[C@H](CCCNC(=N)N)NC(=O)[C@H](C)NC(=O)[C@@H](N)CO)cc2)cc1)C(=O)N[C@@H](CCCNC(=N)N)C(=O)N[C@@H](CCCCN)C(=O)N[C@@H](CO)C(N)=O [peptide 8, H2N-SARAEXHLRKS-CONH2] (H-SARAE[AMPB]HLRKS-NH2)	210 ± 35 nM	2.4 ± 0.6 nM	
CC(C)C[C@H](NC(=O)c1ccc(N=Nc2ccc(CNC(=O)[C@@H](NC(=O)[C@H](CCC(=O)O)NC(=O)[C@H](C)NC(=O)[C@H](CCCNC(=N)N)NC(=O)[C@H](C)NC(=O)[C@@H](N)CO)C(C)C)cc2)cc1)C(=O)N[C@@H](CCCNC(=N)N)C(=O)N[C@@H](CCCCN)C(=O)N[C@@H](CO)C(N)=O [peptide 9, H2N-SARAEVXLRKS-CONH2] (H-SARAEV[AMPB]LRKS-NH2)	2530 ± 390 nM	40.4 ± 3.9 nM	
CC(C)[C@H](NC(=O)[C@H](CCC(=O)O)NC(=O)[C@H](C)NC(=O)[C@H](CCCNC(=N)N)NC(=O)[C@H](C)NC(=O)[C@@H](N)CO)C(=O)N[C@@H](Cc1c[nH]cn1)C(=O)NCc1ccc(N=Nc2ccc(C(=O)N[C@@H](CCCNC(=N)N)C(=O)N[C@@H](CCCCN)C(=O)N[C@@H](CO)C(N)=O)cc2)cc1 [peptide 10, H2N-SARAEVHXRKS-CONH2] (H-SARAEVH[AMPB]RKS-NH2)	1150 ± 120 nM	17 ± 1.9 nM	
CC(C)C[C@H](NC(=O)[C@H](Cc1c[nH]cn1)NC(=O)[C@@H](NC(=O)[C@H](CCC(=O)O)NC(=O)[C@H](C)NC(=O)[C@H](CCCNC(=N)N)NC(=O)[C@H](C)NC(=O)[C@@H](N)CO)C(C)C)C(=O)NCc1ccc(N=Nc2ccc(C(=O)N[C@@H](CCCCN)C(=O)N[C@@H](CO)C(N)=O)cc2)cc1 [peptide 11, H2N-SARAEVHLXKS-CONH2] (H-SARAEVHL[AMPB]KS-NH2)	2140 ± 280 nM	32.8 ± 4.5 nM	
CC(C)C[C@H](NC(=O)[C@H](Cc1c[nH]cn1)NC(=O)[C@@H](NC(=O)[C@H](CCC(=O)O)NC(=O)[C@H](C)NC(=O)[C@H](CCCNC(=N)N)NC(=O)[C@H](C)NC(=O)[C@@H](N)CO)C(C)C)C(=O)N[C@@H](CCCNC(=N)N)C(=O)NCc1ccc(N=Nc2ccc(C(=O)N[C@@H](CO)C(N)=O)cc2)cc1 [peptide 12, H2N-SARAEVHLRXS-CONH2] (H-SARAEVHLR[AMPB]S-NH2)	1320 ± 110 nM	19.8 ± 1.7 nM	
CC(C)C[C@H](NC(=O)[C@H](Cc1c[nH]cn1)NC(=O)c1ccc(N=Nc2ccc(CNC(=O)[C@H](C)NC(=O)[C@H](CCCNC(=N)N)NC(=O)[C@H](C)NC(=O)[C@@H](N)CO)cc2)cc1)C(=O)N[C@@H](CCCNC(=N)N)C(=O)N[C@@H](CCCCN)C(=O)N[C@@H](CO)C(N)=O [peptide 13, H2N-SARAXHLRKS-CONH2] (H-SARA[AMPB]HLRKS-NH2)	293 ± 50 nM	3.63 ± 0.8 nM	
CC(=O)N[C@@H](C)C(=O)N[C@@H](CCCNC(=N)N)C(=O)N[C@@H](C)C(=O)NCc1ccc(N=Nc2ccc(C(=O)N[C@H](C(=O)N[C@@H](Cc3c[nH]cn3)C(=O)N[C@@H](CC(C)C)C(=O)N[C@@H](CCCNC(=N)N)C(=O)N[C@@H](CCCCN)C(=O)N[C@@H](CO)C(N)=O)C(C)C)cc2)cc1 [peptide 14, Ac-ARAXVHLRKS-CONH2] (Ac-ARA[AMPB]VHLRKS-NH2)		1.45 ± 0.52 nM	IC50 (WDR5Δ23; [4]): 102 ± 15 nM; IC50 (WDR5Δ23; [5]): 45 ± 11 nM; Ki (WDR5Δ23; Ki cis (with 5 nM tracer), cis isomer (366 nm), 20 nM WDR5Δ23, 5 nM tracer 22): 4.5 ± 0.82 nM; Ki (WDR5Δ23; Ki trans (with 5 nM tracer), trans isomer, 20 nM WDR5Δ23, 5 nM tracer 22): 1.5 ± 0.63 nM
CC(=O)N[C@@H](C)C(=O)N[C@@H](CCCNC(=N)N)C(=O)N[C@H](C(=O)NCc1ccc(N=Nc2ccc(C(=O)N[C@H](C(=O)N[C@@H](Cc3ccc(O)cc3)C(N)=O)C(C)C)cc2)cc1)[C@@H](C)O [peptide 15, Ac-ARTXVY-CONH2] (Ac-ART[AMPB]VY-NH2)	109 ± 10 nM	0.767 ± 0.15 nM	
CC(C)C[C@H](NC(=O)[C@H](Cc1c[nH]cn1)NC(=O)[C@@H](NC(=O)[C@H](CCC(=O)O)NC(=O)[C@H](C)NC(=O)[C@H](CCCNC(=N)N)NC(=O)[C@H](C)NC(=O)[C@@H](N)CO)C(C)C)C(=O)N[C@@H](CCCNC(=N)N)C(=O)N[C@@H](CCCCN)C(=O)N[C@@H](CO)C(=O)N[C@@H](CCCNC(=N)N)C(=O)N[C@@H](CCCNC(=N)N)C(=O)N[C@@H](CCCNC(=N)N)C(=O)N[C@@H](CCCNC(=N)N)C(=O)N[C@@H](CCCNC(=N)N)C(=O)N[C@@H](CCCNC(=N)N)C(=O)N[C@@H](CCCNC(=N)N)C(=O)N[C@@H](CCCNC(=N)N)C(N)=O [peptide 20] (H-SARAEVHLRKSRRRRRRRR-NH2)	368 ± 20 nM	4.83 ± 0.31 nM	viability at 50 µM [3]: 87%
CC(C)C[C@H](NC(=O)[C@H](Cc1c[nH]cn1)NC(=O)[C@@H](NC(=O)[C@H](CCC(=O)O)NC(=O)[C@H](C)NC(=O)[C@H](CCCNC(=N)N)NC(=O)[C@H](C)NC(=O)[C@@H](N)CO)C(C)C)C(=O)N[C@@H](CCCNC(=N)N)C(=O)N[C@@H](CCCCN)C(=O)N[C@@H](CO)C(=O)N[C@@H](CCCNC(=N)N)C(=O)NCCCCCC(=O)N[C@@H](CCCNC(=N)N)C(=O)N[C@@H](CCCNC(=N)N)C(=O)NCCCCCC(=O)N[C@@H](CCCNC(=N)N)C(=O)N[C@@H](CCCNC(=N)N)C(=O)NCCCCCC(=O)N[C@@H](CCCNC(=N)N)C(=O)N[C@@H](CCCNC(=N)N)C(=O)NCCCCCC(=O)N[C@@H](CCCNC(=N)N)C(=O)NCCCCCC(=O)NCCC(N)=O [peptide 21] (H-SARAEVHLRKSR[Ahx]RR[Ahx]RR[Ahx]RR[Ahx]R[Ahx][βAla]-NH2)	612 ± 20 nM	8.67 ± 0.32 nM	viability at 50 µM [3]: 96%
H2N-SXARAEVHLRKS-CONH2 [peptide 4, X = AMPB]			binding constant to WDR5 (in words) (WDR5Δ23; both isomers): not possible to obtain measurable binding constants
